From the supplement of paper PMC10307832

Key:
Test in all cases: relative viability (nuclei count vs DMSO), 5 days (fraction); higher = more cells survive
Adavosertib + Olaparib = compound: C=CCn1c(=O)c2cnc(Nc3ccc(N4CCN(C)CC4)cc3)nc2n1-c1cccc(C(C)(C)O)n1 [Adavosertib] + O=C(c1cc(Cc2n[nH]c(=O)c3ccccc23)ccc1F)N1CCN(C(=O)C2CC2)CC1 [Olaparib] (partner 8 µM)
Method in brief: (§1)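 Values are medians from duplicate plates. Each reflects relative viability, defined as the nuclei count of treated wells over that of vehicle wells. Lung cancer cell lines in 1536-well plates were pin-tool dosed one day after seeding with one drug alone or with a fixed anchor-drug dose plus five library-drug doses (not always all listed) in √10 steps, then fixed, stained and imaged at 4× after 5 days.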

Adavosertib + Pemetrexed = compound: C=CCn1c(=O)c2cnc(Nc3ccc(N4CCN(C)CC4)cc3)nc2n1-c1cccc(C(C)(C)O)n1 [Adavosertib] + Nc1nc2[nH]cc(CCc3ccc(C(=O)N[C@@H](CCC(=O)O)C(=O)O)cc3)c2c(=O)[nH]1 [Pemetrexed] (partner 0.2 µM)
Method in brief: as §1

Nelarabine + Vorinostat = compound: COc1nc(N)nc2c1ncn2[C@@H]1O[C@H](CO)[C@@H](O)[C@@H]1O [Nelarabine] + O=C(CCCCCCC(=O)Nc1ccccc1)NO [Vorinostat] (partner 1 µM)
Method in brief: as §1

Nelarabine + Pictilisib = compound: COc1nc(N)nc2c1ncn2[C@@H]1O[C@H](CO)[C@@H](O)[C@@H]1O [Nelarabine] + CS(=O)(=O)N1CCN(Cc2cc3nc(-c4cccc5[nH]ncc45)nc(N4CCOCC4)c3s2)CC1 [Pictilisib] (partner 1 µM)
Method in brief: as §1

Cell Line | relative viability (Adavosertib + Olaparib; first compound 0.01 µM) | relative viability (Adavosertib + Olaparib; first compound 0.03162 µM) | relative viability (Adavosertib + Olaparib; first compound 0.1 µM) | relative viability (Adavosertib + Olaparib; first compound 0.3162 µM) | relative viability (Adavosertib + Pemetrexed; first compound 0.01 µM) | relative viability (Adavosertib + Pemetrexed; first compound 0.03162 µM) | relative viability (Adavosertib + Pemetrexed; first compound 0.1 µM) | relative viability (Adavosertib + Pemetrexed; first compound 0.3162 µM) | relative viability (Nelarabine + Vorinostat; first compound 0.01 µM) | relative viability (Nelarabine + Vorinostat; first compound 0.03162 µM) | relative viability (Nelarabine + Vorinostat; first compound 0.1 µM) | relative viability (Nelarabine + Vorinostat; first compound 0.3162 µM) | relative viability (Nelarabine + Vorinostat; first compound 1 µM) | relative viability (Nelarabine + Pictilisib; first compound 0.01 µM) | relative viability (Nelarabine + Pictilisib; first compound 0.03162 µM) | relative viability (Nelarabine + Pictilisib; first compound 0.1 µM) | relative viability (Nelarabine + Pictilisib; first compound 0.3162 µM) | relative viability (Nelarabine + Pictilisib; first compound 1 µM)
NCI-H1650 | 0.714 | 0.708 | 0.76 | 0.622 | 0.387 | 0.366 | 0.281 | 0.278 | 0.61 | 0.53 | 0.524 | 0.549 | 0.681 | 0.742 | 0.666 | 0.476 | 0.559 | 0.591
NCI-H2023 | 0.496 | 0.432 | 0.338 | 0.168 | 0.114 | 0.163 | 0.164 | 0.114 | 0.793 | 0.821 | 0.525 | 0.71 | 0.687 | 0.309 | 0.316 | 0.176 | 0.216 | 0.252
COR-L23 | 0.339 | 0.34 | 0.227 | 0.163 | 0.203 | 0.198 | 0.204 | 0.165 | 0.471 | 0.416 | 0.511 | 0.427 | 0.456 | 1.13 | 0.635 | 0.738 | 0.934 | 0.864
LCLC-97TM1 | 0.412 | 0.369 | 0.439 | 0.303 | 0.214 | 0.171 | 0.17 | 0.159 |  |  | 0.464 | 0.819 | 0.713 | 0.196 | 0.202 | 0.152 | 0.248 | 0.22
NCI-H441 | 0.533 | 0.477 | 0.577 | 0.462 | 0.235 | 0.265 | 0.275 | 0.225 | 0.749 | 0.814 | 1.02 | 0.886 | 0.793 | 0.488 | 0.376 | 0.543 | 0.461 | 0.582
NCI-H1734 | 0.584 | 0.613 | 0.562 | 0.352 | 0.409 | 0.39 | 0.325 | 0.323 | 0.839 | 0.704 | 0.772 | 0.766 | 0.892 | 0.561 | 0.538 | 0.516 | 0.479 | 0.452
NCI-H1437 | 0.65 | 0.613 | 0.643 | 0.566 | 0.328 | 0.281 | 0.309 | 0.229 | 0.992 | 0.946 | 0.831 | 0.878 | 0.808 | 0.465 | 0.356 | 0.373 | 0.426 | 0.47
NCI-H1651 | 0.17 | 0.218 | 0.139 | 0.16 | 0.564 | 0.574 | 0.628 | 0.408 | 0.487 | 0.591 | 0.525 | 0.566 | 0.553 | 0.683 | 0.476 | 0.63 | 0.699 | 0.736
NCI-H838 | 0.784 | 0.805 | 0.804 | 0.613 | 0.263 | 0.22 | 0.172 | 0.168 | 0.861 | 0.79 | 0.759 | 0.755 | 0.73 | 0.481 | 0.331 | 0.428 | 0.474 | 0.438
